The record followed here is patent US9540343B2 (Gilead Sciences, Inc., priority 2011, dated 2017).

The inhibition is the drop in the measured response relative to a control, in per cent. Usually CC50 stands for the concentration that lowers cell viability or growth by half.

One series concerns HIV-IIIb. Briefly: Test A: Antiviral assay in MT4 cells. Type of series: cell-based, HIV-1. The conditions noted are these: Human immunodeficiency virus 1, IIIB, MT4, 120 h, read-out: % inhibition at 2 μM, percent inhibition of virus-induced cell killing, from dose response curve at 2 uM drug; MT-4 cells infected with HIV-IIIb, 5 days, CellTiter-Glo. For orientation: In ATP-based viability assays light output follows the ATP content of the culture.

Another series in a line: in vitro. The conditions noted are these: human, uninfected MT-4 cells, CC50 (nM), same protocol as Test A, CellTiter-Glo. The method, boiled down: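 Cytoprotection read-out: CellTiter-Glo chemiluminescence after 5 days at 37 °C of HIV-IIIb-infected MT-4 cells (m.o.i. 0.003) with compound in 10-point 3-fold dilutions, quadruplicate, 10% FBS. Cytotoxicity (CC50) measured identically without virus.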

With `O=C(Cn1nc(C(F)F)c2c1C(F)(F)C1CC21)N[C@@H](Cc1cc(F)cc(F)c1)c1ncncc1-c1cnc2[nH]ccc2c1` (stereo partly drawn) [Example 172D, N—((S)-1-(5-(1H-pyrrolo[2,3-b]pyridin-5-yl)pyrimidin-4-yl)-2-(3,5-difluorophenyl)ethyl)-2-(3-(difluoromethyl)-5,5-difluoro-3b,4,4a,5-tetrahydro-1H-cyclopropa[3,4]cyclopenta[1,2-c]pyrazol-1-yl)acetamide], in the series on HIV-IIIb, the inhibition at 2 µM worked out at 104%. In addition, the CC50 at 5 days in the series “in vitro” amounted to 22100 nM.

With `COc1ccc(-c2cccnc2[C@H](Cc2ccccc2)NC(=O)Cn2nc(C(F)(F)F)c3c2CCCC3)cc1` [Example 21, (S)—N-(1-(3-(4-methoxyphenyl)pyridin-2-yl)-2-phenylethyl)-2-(3-(trifluoromethyl)-4,5,6,7-tetrahydro-1H-indazol-1-yl)acetamide], the inhibition at 2 µM in the series with HIV-IIIb is 28%. Besides, the CC50 at 5 days in the series “in vitro” was found to be 15500 nM.

As for `NC(=O)c1cc(-c2cccnc2[C@H](Cc2cc(F)cc(F)c2)NC(=O)Cn2nc(C(F)F)c3c2C(O)C2CC32)ccc1F` (stereo partly drawn) [Example 212, 5-(2-((1S)-1-(2-(3-(difluoromethyl)-5-hydroxy-3b,4,4a,5-tetrahydro-1H-cyclopropa[3,4]cyclopenta[1,2-c]pyrazol-1-yl)acetamido)-2-(3,5-difluorophenyl)ethyl)pyridin-3-yl)-2-fluorobenzamide], the inhibition at 2 µM in the series with HIV-IIIb was 69%. This molecule also registered a CC50 at 5 days in “in vitro” of more than 53200 nM.

Turning to `O=C(Cc1c[nH]c2ccc(F)cc12)N[C@@H](Cc1cc(F)cc(F)c1)c1ncccc1-c1ccccc1-c1ccccc1` [Example 398, (S)—N-(1-(3-(biphenyl-2-yl)pyridin-2-yl)-2-(3,5-difluorophenyl)ethyl)-2-(5-fluoro-1H-indol-3-yl)acetamide], in the series on HIV-IIIb, the inhibition at 2 µM worked out at 2%. Further, in the series “in vitro”, the midpoint of cytotoxicity, the CC50 at 5 days, lay at 9830 nM.

With `CC(C)c1cc(C(F)(F)F)n(CC(=O)N[C@@H](Cc2cc(F)cc(F)c2)c2ncccc2-c2ccc(F)c(C(N)=O)c2)n1` [Example 236D, (S)-5-(2-(2-(3,5-difluorophenyl)-1-(2-(3-isopropyl-5-(trifluoromethyl)-1H-pyrazol-1-yl)acetamido)ethyl)pyridin-3-yl)-2-fluorobenzamide], the inhibition at 2 µM in the series with HIV-IIIb turned out to be 15%. This molecule also showed a 50% cytotoxic concentration (CC50) at 5 days in “in vitro” of 25600 nM.

Consider `CN(C)C(=O)c1cccc(-c2cccnc2[C@H](Cc2cc(F)cc(F)c2)NC(=O)Cc2c[nH]c3ccc(O)cc23)c1` [Example 48, (S)-3-(2-(2-(3,5-difluorophenyl)-1-(2-(5-hydroxy-1H-indol-3-yl)acetamido)ethyl)pyridin-3-yl)-N,N-dimethylbenzamide], for which the inhibition at 2 µM in the series with HIV-IIIb worked out at 74%. This molecule also gave a CC50 at 5 days in the series “in vitro” of more than 53000 nM.

`Cc1cc2ncn(CC(=O)N[C@@H](Cc3cc(F)cc(F)c3)c3ncncc3-c3ccc(Cl)cc3)c2cc1C` [Example 320, (S)—N-(1-(5-(4-chlorophenyl)pyrimidin-4-yl)-2-(3,5-difluorophenyl)ethyl)-2-(5,6-dimethyl-1H-benzo[d]imidazol-1-yl)acetamide]: the inhibition at 2 µM with HIV-IIIb came out at 110%. This molecule also showed a CC50 at 5 days in the series “in vitro” of 12500 nM.

With `Cc1noc(C)c1-c1cccnc1[C@H](Cc1cc(F)cc(F)c1)NC(=O)Cc1c[nH]c2ccc(F)cc12` [Example 94, N-((1S)-2-(3,5-difluorophenyl)-1-(3-(3,5-dimethylisoxazol-4-yl)pyridin-2-yl)ethyl)-2-(5-fluoro-1H-indol-3-yl)acetamide], the inhibition at 2 µM in the series with HIV-IIIb was determined as 3%. In addition, the CC50 at 5 days in “in vitro” came to 42000 nM.

Consider `Cc1cc2nc(C(F)(F)F)n(CC(=O)N[C@@H](Cc3cc(F)cc(F)c3)c3ncccc3-c3ccc(F)c(C(N)=O)c3)c2cc1C` [Example 319, (S)-5-(2-(2-(3,5-difluorophenyl)-1-(2-(5,6-dimethyl-2-(trifluoromethyl)-1H-benzo[d]imidazol-1-yl)acetamido)ethyl)pyridin-3-yl)-2-fluorobenzamide], for which, in the series with HIV-IIIb, the inhibition at 2 µM is 70%. Moreover, the 50% cytotoxic concentration (CC50) at 5 days in “in vitro” is more than 52500 nM.

As to `NC(=O)c1cc(-c2cccnc2[C@H](Cc2cc(F)cc(F)c2)NC(=O)C2CCCN2C(=O)c2ccccc2)ccc1F` (stereo partly drawn) [Example 126, 1-benzoyl-N—((S)-1-(3-(3-carbamoyl-4-fluorophenyl)pyridin-2-yl)-2-(3,5-difluorophenyl)ethyl)pyrrolidine-2-carboxamide], in the series with HIV-IIIb, the inhibition at 2 µM was 7%. The CC50 at 5 days in “in vitro” is more than 53000 nM.

Consider `COc1ccc2c(c1)C(CC(=O)N[C@@H](Cc1cc(F)cc(F)c1)c1ncccc1-c1ccc(F)c(C(N)=O)c1)C(=O)N2` (stereo partly drawn) [Example 202, 5-(2-((1S)-2-(3,5-difluorophenyl)-1-(2-(5-methoxy-2-oxoindolin-3-yl)acetamido)ethyl)pyridin-3-yl)-2-fluorobenzamide], for which the inhibition at 2 µM in the series on HIV-IIIb was found to be 1%. In “in vitro”, this molecule registered a half-maximal cytotoxic concentration (CC50) at 5 days of more than 53200 nM.

Regarding `NC(=O)c1cc(-c2cncnc2[C@H](Cc2cc(F)cc(F)c2)NC(=O)Cn2nc(C(F)(F)F)c3c2CC2CC32)ccc1F` (stereo partly drawn) [Example 136D, 5-(4-((1S)-2-(3,5-difluorophenyl)-1-(2-(3-(trifluoromethyl)-3b,4,4a,5-tetrahydro-1H-cyclopropa[3,4]cyclopenta[1,2-c]pyrazol-1-yl)acetamido)ethyl)pyrimidin-5-yl)-2-fluorobenzamide], the inhibition at 2 µM with HIV-IIIb is 88%. The CC50 at 5 days in “in vitro” came out at 27800 nM.

On to `NC(=O)c1cc(-c2cccnc2[C@H](Cc2cc(F)cc(F)c2)NC(=O)[C@H]2CCC(=O)N2)ccc1F` [Example 125, (R)—N—((S)-1-(3-(3-carbamoyl-4-fluorophenyl)pyridin-2-yl)-2-(3,5-difluorophenyl)ethyl)-5-oxopyrrolidine-2-carboxamide], for which the inhibition at 2 µM in the series on HIV-IIIb came to 0%. This molecule also yielded a CC50 at 5 days in “in vitro” of more than 53000 nM.

`NC(=O)c1cc(-c2cccnc2[C@H](Cc2cc(F)cc(F)c2)NC(=O)[C@@H]2C[C@H](c3ccccc3)CN2)ccc1F` [Example 177, (2S,4R)—N—((S)-1-(3-(3-carbamoyl-4-fluorophenyl)pyridin-2-yl)-2-(3,5-difluorophenyl)ethyl)-4-phenylpyrrolidine-2-carboxamide]: the inhibition at 2 µM in the series on HIV-IIIb came out at 0%. Besides, in “in vitro”, the CC50 at 5 days was found to be 51700 nM.

For `COc1ccc(-c2cccnc2[C@@H](Cc2ccccc2)NC(=O)Cn2nc(C(F)(F)F)c3c2CCCC3)cc1` [Example 23, (R)—N-(1-(3-(4-methoxyphenyl)pyridin-2-yl)-2-phenylethyl)-2-(3-(trifluoromethyl)-4,5,6,7-tetrahydro-1H-indazol-1-yl)acetamide], the inhibition at 2 µM with HIV-IIIb amounted to 0%. In “in vitro”, this molecule registered a half-maximal cytotoxic concentration (CC50) at 5 days of 13800 nM.

For the molecule `O=C(Cn1nc(C(F)F)c2c1C(F)(F)C1CC21)N[C@@H](Cc1cc(F)cc(F)c1)c1ncncc1-c1cnc2[nH]ncc2c1` (stereo partly drawn) [Example 176C, N—((S)-1-(5-(1H-pyrazolo[3,4-b]pyridin-5-yl)pyrimidin-4-yl)-2-(3,5-difluorophenyl)ethyl)-2-(3-(difluoromethyl)-5,5-difluoro-3b,4,4a,5-tetrahydro-1H-cyclopropa[3,4]cyclopenta[1,2-c]pyrazol-1-yl)acetamide], the inhibition at 2 µM with HIV-IIIb is 59%. The same molecule showed a CC50 at 5 days in “in vitro” of 46500 nM.

Consider `NC(=O)c1cccc(-c2cccnc2[C@H](Cc2cc(F)cc(F)c2)NC(=O)Cc2c[nH]c3ccc(=O)[nH]c23)c1` [Example 51, (S)-3-(2-(2-(3,5-difluorophenyl)-1-(2-(5-oxo-4,5-dihydro-1H-pyrrolo[3,2-b]pyridin-3-yl)acetamido)ethyl)pyridin-3-yl)benzamide], for which, in the series with HIV-IIIb, the inhibition at 2 µM turned out to be 52%. Besides, the CC50 at 5 days in the series “in vitro” is more than 53000 nM.

As for `Cc1nn(CC(=O)N[C@@H](Cc2cc(F)cc(F)c2)c2ncccc2-c2cccc(C(N)=O)c2)c(C)c1C` [Example 506, (S)-3-(2-(2-(3,5-difluorophenyl)-1-(2-(3,4,5-trimethyl-1H-pyrazol-1-yl)acetamido)ethyl)pyridin-3-yl)benzamide], the inhibition at 2 µM with HIV-IIIb is 32%. The half-maximal cytotoxic concentration (CC50) at 5 days in “in vitro” is more than 53000 nM.

As to `CNC(=O)c1cc(F)cc(-c2cccnc2[C@H](Cc2cc(F)cc(F)c2)NC(=O)Cc2c[nH]c3ccc(F)cc23)c1` [Example 63, (S)-3-(2-(2-(3,5-difluorophenyl)-1-(2-(5-fluoro-1H-indol-3-yl)acetamido)ethyl)pyridin-3-yl)-5-fluoro-N-methylbenzamide], in the series with HIV-IIIb, the inhibition at 2 µM was determined as 22%. Besides, it took 14800 nM to reach half-maximal cytotoxicity in “in vitro” (CC50 at 5 days).

Consider `NC(=O)c1cccc(-c2cccnc2[C@H](Cc2cc(F)cc(Cl)c2)NC(=O)Cc2c[nH]c3ccc(O)cc23)c1` [Example 245F, (S)-3-(2-(2-(3-chloro-5-fluorophenyl)-1-(2-(5-hydroxy-1H-indol-3-yl)acetamido)ethyl)pyridin-3-yl)benzamide], for which, in the series with HIV-IIIb, the inhibition at 2 µM turned out to be 71%. Moreover, the CC50 at 5 days in “in vitro” is 30300 nM.

Consider `O=C(Cc1c[nH]c2ccc(F)cc12)N[C@@H](Cc1cc(F)cc(F)c1)c1ncccc1-c1cc(Cl)cc(Cl)c1` [Example 422], for which the inhibition at 2 µM with HIV-IIIb stood at 0%. The same molecule showed a 50% cytotoxic concentration (CC50) at 5 days in “in vitro” of 6760 nM.

Regarding `NC(=O)c1cccc(-c2cncnc2[C@@H](Cc2cc(F)cc(F)c2)NC(=O)Cc2c[nH]c3ccc(O)cc23)c1` [Example 313, (R)-3-(4-(2-(3,5-difluorophenyl)-1-(2-(5-hydroxy-1H-indol-3-yl)acetamido)ethyl)pyrimidin-5-yl)benzamide], in the series on HIV-IIIb, the inhibition at 2 µM was 14%. The same molecule showed a CC50 at 5 days in the series “in vitro” of more than 53200 nM.

For the molecule `CCCCNS(=O)(=O)c1ccc(-c2cccnc2[C@H](Cc2cc(F)cc(F)c2)NC(=O)Cn2nc(C(F)F)c3c2C(F)(F)C2CC32)cc1` (stereo partly drawn) [Example 393, (S)—N-(1-(3-(4-(N-butylsulfamoyl)phenyl)-pyridin-2-yl)-2-(3,5-difluorophenyl)ethyl)-2-(3-(difluoromethyl)-5,6-dihydro-4,5-(methano)-6,6-difluoro-cyclopenta[c]pyrazol-1(4H)-yl)acetamide], the inhibition at 2 µM with HIV-IIIb is 54%. For the same molecule, in “in vitro”, the CC50 at 5 days was determined as 26100 nM.
